Laboratory results from PubChem BioAssay (NCI).
Several values for one entry are separate records, joined by “and”; a condition that tells them apart may be missing. Identical values can stand only once.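 Step 1: Grow cells in 96-well plates. Step 2: Expose to compound for 48 hours at 5 concentrations. Step 3: Interpolate endpoints linearly; if unreached, use highest concentration. The concentration for 50% growth inhibition is given as GI50. At the TGI there is no net growth.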

Key:
Test in all cases: DTP human tumour cell line panel, 48 h
[1] = tested on: TK-10 renal
[2] = tested on: A498 renal
[3] = tested on: NCI-H460 lung
[4] = tested on: NCI-H522 lung
[5] = tested on: M14 melanoma
[6] = tested on: RPMI-8226 leukemia
[7] = tested on: SR leukemia
[8] = tested on: SF-268 CNS
[9] = tested on: HCT-116 colon
[10] = tested on: K-562 leukemia

C=CC(=O)N1CCCC(n2nc(-c3ccc(Oc4ccccc4)cc3)c3c(N)ncnc32)C1 (stereo unspecified)
GI50 [1]: 0.0615 µM
TGI [1]: 3.94 µM
GI50 [2]: 0.124 µM
TGI [2]: 2.08 µM
GI50 [3]: 14.3 µM
TGI [3]: 31 µM
GI50 [4]: 0.0578 µM
TGI [4]: 9.31 µM
GI50 [5]: 7.59 µM
TGI [5]: 21.4 µM
GI50 [6]: 6.57 µM
TGI [6]: 31.2 µM
GI50 [7]: 9.28 µM
TGI [7]: 34.1 µM
GI50 [8]: 3.12 µM
TGI [8]: 17.2 µM
GI50 [9]: 11.9 µM
TGI [9]: 26.2 µM
GI50 [10]: 4.13 µM
TGI [10]: 24.4 µM

CC(=O)N/C(=C\c1ccc(/C=C(\NC(C)=O)c2nc3ccc(Cl)cc3[nH]2)cc1)c1nc2ccccc2[nH]1
TGI [1]: > 100 µM
TGI [2]: > 100 µM
TGI [3]: > 100 µM
TGI [4]: > 100 µM
TGI [5]: > 100 µM
TGI [6]: > 100 µM
TGI [7]: > 100 µM
TGI [8]: > 100 µM
TGI [9]: > 100 µM
TGI [10]: > 100 µM

Cc1ccc(C(=O)c2oc3ccc4c(C)cc(=O)oc4c3c2C)cc1
GI50 [1]: 45.1 µM
TGI [1]: > 100 µM
GI50 [2]: 10.1 µM
TGI [2]: > 100 µM
GI50 [3]: 0.896 µM
TGI [3]: 18.2 µM
GI50 [4]: 9.12 µM
TGI [4]: 55.2 µM
GI50 [6]: 7.7 µM
TGI [6]: > 100 µM
GI50 [7]: 25.1 µM
TGI [7]: > 100 µM
GI50 [8]: 10.4 µM
TGI [8]: 98.8 µM
GI50 [9]: 43.8 µM
TGI [9]: > 100 µM
GI50 [10]: 5.53 µM
TGI [10]: > 100 µM

COc1cc(OC)c(/C=C/c2ccc3ccccc3[n+]2C)c(OC)c1
GI50 [1]: 1.91 µM
TGI [1]: 6.93 µM
GI50 [2]: 0.535 µM
TGI [2]: 5.42 µM
GI50 [3]: 0.577 µM
TGI [3]: 2.72 µM
GI50 [4]: 1.14 µM
TGI [4]: 6.25 µM
GI50 [5]: 1.22 µM
TGI [5]: 5.01 µM
GI50 [6]: 0.281 µM
TGI [6]: 2.24 µM
GI50 [7]: 0.35 µM
TGI [7]: 2.68 µM
GI50 [8]: 0.501 µM
TGI [8]: 7.61 µM
GI50 [9]: 0.392 µM
TGI [9]: 11.7 µM
GI50 [10]: 0.271 µM
TGI [10]: 20.9 µM

CN(C(=O)c1ccc(Cl)s1)C(=S)N(C)C(=O)c1ccc(Cl)s1
TGI [1]: > 10 µM
TGI [2]: > 10 µM
TGI [3]: > 10 µM
TGI [4]: > 10 µM
TGI [5]: > 10 µM
TGI [6]: > 10 µM
TGI [7]: > 10 µM
TGI [8]: > 10 µM
TGI [9]: > 10 µM
TGI [10]: > 10 µM

COc1ccc(-c2c(C3=NCCN3)nnn2-c2ccccc2)cc1
TGI [1]: > 100 µM
TGI [2]: > 100 µM
TGI [3]: > 100 µM
TGI [4]: > 100 µM
TGI [5]: > 100 µM
TGI [6]: > 100 µM
TGI [7]: > 100 µM
TGI [8]: > 100 µM
TGI [9]: > 100 µM
TGI [10]: > 100 µM

C=CCCCCCCCCCCCC1CCC(CC)N1 (stereo unspecified)
TGI [1]: 32.1 µM
TGI [2]: 38.4 µM
TGI [3]: 40.7 µM
TGI [4]: 13.5 µM
TGI [5]: 24.6 µM
TGI [6]: 31.9 µM
TGI [7]: 7.12 µM
TGI [8]: 46.6 µM
TGI [9]: 20.1 µM
TGI [10]: 28.1 µM

COC(=O)CCC/C=C\C[C@H]1C=CC(=O)/C1=C/C[C@@H](O)CCc1cccc(C(F)(F)F)c1
GI50 [1]: 4.49 µM
TGI [1]: 12.4 µM
GI50 [2]: 5.93 µM
TGI [2]: 18.2 µM
GI50 [3]: 2.35 µM
TGI [3]: 5.57 µM
GI50 [4]: 2.02 µM
TGI [4]: 5.57 µM
GI50 [5]: 2.1 µM
TGI [5]: 6.07 µM
GI50 [6]: 2.85 µM
TGI [6]: 14 µM
GI50 [7]: 0.975 µM
TGI [7]: 5.53 µM
GI50 [8]: 3.09 µM
TGI [8]: 11.4 µM
GI50 [9]: 1.78 µM
TGI [9]: 4 µM
GI50 [10]: 2.23 µM
TGI [10]: 7.98 µM

COc1ccc(NC(=O)C2C(=O)N(c3ccc(OC)cc3)C(=O)/C2=N/O)cc1 (stereo unspecified)
TGI [1]: 52.3 µM
TGI [2]: 59.3 µM
TGI [3]: 46.4 µM
TGI [4]: 53.4 µM
TGI [5]: > 86.6 µM
TGI [6]: > 100 µM
TGI [7]: > 100 µM
TGI [8]: 52.7 µM
TGI [9]: 38.3 µM
TGI [10]: > 100 µM

COc1cc(OC2OC(C)C(O)C(O)C2O)cc2oc(-c3ccc(O)cc3)c(CC=C(C)C)c(=O)c12 (stereo unspecified)
GI50 [1]: 25 µM
TGI [1]: 64.7 µM
GI50 [2]: 29.8 µM
TGI [2]: 84.2 µM
GI50 [3]: 14.7 µM
TGI [3]: 38.7 µM
GI50 [4]: 13 µM
TGI [4]: 39.8 µM
GI50 [5]: 19.2 µM
TGI [5]: 39.8 µM
GI50 [6]: 9.02 µM
TGI [6]: 26.6 µM
GI50 [7]: 4.08 µM
TGI [7]: 22.5 µM
GI50 [8]: 15.4 µM
TGI [8]: 32.5 µM
GI50 [9]: 8.15 µM
TGI [9]: 20.8 µM
GI50 [10]: 7.91 µM
TGI [10]: 27.9 µM

CC(=O)OCC1OC(n2c(-c3ccccc3)cc(-c3ccco3)c(C#N)c2=O)C(OC(C)=O)C(OC(C)=O)C1OC(C)=O (stereo unspecified)
TGI [1]: > 100 µM
TGI [2]: > 100 µM
TGI [3]: > 100 µM
TGI [4]: > 100 µM
GI50 [5]: > 100 µM
TGI [5]: > 100 µM
TGI [6]: > 100 µM
GI50 [7]: > 100 µM and 46.1 µM
TGI [7]: > 100 µM
GI50 [8]: 17.4 µM and 35 µM
TGI [8]: 64.2 µM and > 100 µM
TGI [9]: > 100 µM
GI50 [10]: > 68.8 µM and 9.04 µM
TGI [10]: > 100 µM

Clc1nc(Oc2ccccc2)nc(-c2cn(-c3ccccc3)c3ccccc23)n1
GI50 [1]: 28.7 µM
TGI [1]: 67.1 µM
GI50 [2]: > 47.6 µM
TGI [2]: > 100 µM
GI50 [3]: 21.4 µM
TGI [3]: > 71.7 µM
GI50 [4]: 1.88 µM
TGI [4]: 3.88 µM
GI50 [5]: 5.32 µM
TGI [5]: 17.1 µM
GI50 [6]: 3.29 µM
TGI [6]: 21.5 µM
GI50 [7]: 0.241 µM
TGI [7]: 0.849 µM
GI50 [8]: 4.28 µM
TGI [8]: 13.9 µM
GI50 [9]: 3.64 µM
TGI [9]: 11.8 µM
GI50 [10]: 0.4 µM
TGI [10]: 18.1 µM

O=C(Nc1ccccc1C(F)(F)F)c1cccc(NC2=C(Cl)C(=O)N(Cc3ccccc3)C2=O)c1
GI50 [1]: 6.85 µM
TGI [1]: 37.2 µM
GI50 [2]: 11.3 µM
TGI [2]: 37 µM
GI50 [3]: 3.52 µM
TGI [3]: 15.9 µM
TGI [4]: 0.0672 µM
GI50 [5]: 23 µM
TGI [5]: > 76.8 µM
GI50 [6]: 13.1 µM
TGI [6]: > 100 µM
GI50 [7]: 0.447 µM
TGI [7]: 4.35 µM
GI50 [8]: 9.32 µM
TGI [8]: > 25.3 µM
GI50 [9]: 14.9 µM
TGI [9]: > 55.1 µM
GI50 [10]: 3.55 µM
TGI [10]: > 100 µM

CCCCCCC/C=C/[C@H]1O[C@]23C(=O)C[C@@]4(C[C@@H](OC5OC(CO)C(O)C(O)C5O)C[C@@H]4[C@H]2C=C1C)OC3=O (stereo partly specified)
GI50 [1]: 6.14 µM
TGI [1]: 12.6 µM
GI50 [2]: 4.78 µM
TGI [2]: 9.43 µM
GI50 [3]: 6.63 µM
TGI [3]: 16.8 µM
GI50 [4]: 1.7 µM
TGI [4]: 8.64 µM
GI50 [5]: 3.58 µM
TGI [5]: 8.43 µM
GI50 [6]: 1.28 µM
TGI [6]: > 33.3 µM
GI50 [7]: 1.35 µM
TGI [7]: 13.6 µM
GI50 [8]: 5.12 µM
TGI [8]: 11.1 µM
GI50 [9]: 1.68 µM
TGI [9]: 6.03 µM
GI50 [10]: 2.2 µM
TGI [10]: 18.5 µM

Nc1nc(-c2cccc([N+](=O)[O-])c2)c(Br)c(=O)[nH]1
TGI [1]: > 100 µM
TGI [2]: > 100 µM
TGI [3]: > 100 µM
TGI [4]: > 100 µM
TGI [5]: > 64.2 µM
TGI [6]: > 100 µM
TGI [7]: > 100 µM
TGI [8]: > 100 µM
TGI [9]: > 100 µM
TGI [10]: > 100 µM
